{"source": "patent US8299111B2", "about": "“Compounds which modulate the CB2 receptor” (Boehringer Ingelheim International GmbH, priority 2006, dated 2012)", "biological_target": "T1, human CB2R (Homo sapiens, UniProt P34972)", "T1 construct": "host or cells: CHO cells", "T1 sequence (P34972 whole entry)": "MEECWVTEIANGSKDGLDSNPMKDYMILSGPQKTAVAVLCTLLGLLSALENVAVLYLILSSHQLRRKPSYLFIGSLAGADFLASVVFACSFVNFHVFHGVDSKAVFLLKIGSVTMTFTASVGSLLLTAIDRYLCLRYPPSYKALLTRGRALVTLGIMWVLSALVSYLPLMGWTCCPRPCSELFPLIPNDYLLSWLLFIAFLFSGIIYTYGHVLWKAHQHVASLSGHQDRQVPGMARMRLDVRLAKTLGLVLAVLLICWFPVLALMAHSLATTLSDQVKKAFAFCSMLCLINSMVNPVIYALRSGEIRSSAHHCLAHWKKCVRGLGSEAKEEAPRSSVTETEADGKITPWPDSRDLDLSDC", "assay": "CB2R mediated modulation of cAMP synthesis", "type": "cell-based", "details": "found through the use of the above described assays (binding and cAMP); CHO cells expressing human CB2R, forskolin-stimulated cAMP", "protocol": "B. CB2R Mediated Modulation of cAMP Synthesis:\nCHO cells expressing human CB2R (Euroscreen) were plated at a density of 5000 cells per well in 384 well plates and incubated overnight at 37° C. After removing the media, the cells were treated with test compounds diluted in stimulation buffer containing 1 mM IBMX, 0.25% BSA and 10 uM Forskolin. The assay was incubated for 30 minutes at 37° C. Cells were lysed and the cAMP concentration was measured using DiscoverX -XS cAMP kit, following the manufacturer's protocol. In this setting, agonists will decrease forskolin induced production of cAMP while inverse agonists will further increase forskolin induced production of cAMP. EC50 of agonists were calculated as follows. The maximal amount of cAMP produced by forskolin compared to the level of cAMP inhibited by 1 uM CP55940 is defined as 100%. The EC50 value of each test compound was determined as the concentration at which 50% of the forskolin-stimulated cAMP synthesis was inhibited. Data was analyzed using a four-parameter logistic model. (Model 205 of XLfit 4.0)."}
{"smiles": "CC(C)(C)Cc1cc(NC(=O)C(C)(C)S(=O)(=O)c2ccc(Cl)cc2)on1", "values": [{"measurement": "agonistic activity", "result": "agonistic activity"}]}
{"smiles": "CC(C)(C)c1cc(NC(=O)C(C)(C)S(=O)(=O)c2ccc[n+]([O-])c2)no1", "values": [{"measurement": "agonistic activity", "result": "agonistic activity"}]}
{"smiles": "Cc1nc(NC(=O)C2(S(=O)(=O)c3ccc(Cl)cc3)CCC2)sc1C(C)(C)C", "note": "[1-(4-Chloro-benzenesulfonyl)-cyclobutanecarboxylic acid (5-tert-butyl-4-methyl-thiazol-2-yl)-amide]", "values": [{"measurement": "agonistic activity", "result": "agonistic activity"}]}
{"smiles": "CC(C)(C)c1cc(NC(=O)C2(S(=O)(=O)c3ccc(Cl)cc3)CCC2)no1", "note": "[1-(4-Chloro-benzenesulfonyl)-cyclobutanecarboxylic acid (5-tert-butyl-isoxazol-3-yl)-amide]", "values": [{"measurement": "agonistic activity", "result": "agonistic activity"}]}
{"smiles": "CC(C)(C)c1cnc(NC(=O)C2(S(=O)(=O)c3ccc(Cl)cc3)CCC2)s1", "note": "[1-(4-Chloro-benzenesulfonyl)-cyclobutanecarboxylic acid (5-tert-butyl-thiazol-2-yl)-amide]", "values": [{"measurement": "agonistic activity", "result": "agonistic activity"}]}
{"smiles": "Cn1nc(-c2ccccc2)cc1NC(=O)C1(S(=O)(=O)c2ccc(Cl)cc2)CC1", "note": "[1-(4-Chloro-benzenesulfonyl)-cyclopropanecarboxylic acid (2-methyl-5-phenyl-2H-pyrazol-3-yl)-amide]", "values": [{"measurement": "agonistic activity", "result": "agonistic activity"}]}
{"smiles": "CC(C)(C)c1csc(NC(=O)C2(S(=O)(=O)c3ccc(Cl)cc3)CC2)n1", "note": "[1-(4-Chloro-benzenesulfonyl)-cyclopropanecarboxylic acid (4-tert-butyl-thiazol-2-yl)-amide]", "values": [{"measurement": "agonistic activity", "result": "agonistic activity"}]}
{"smiles": "O=C(Nc1cc(C(F)(F)F)ccn1)C1(S(=O)(=O)c2ccc(Cl)cc2)CC1", "note": "[1-(4-Chloro-benzenesulfonyl)-cyclopropanecarboxylic acid (4-trifluoromethyl-pyridin-2-yl)-amide]", "values": [{"measurement": "agonistic activity", "result": "agonistic activity"}]}
{"smiles": "Cn1nc(C(C)(C)C)cc1NC(=O)C1(S(=O)(=O)c2ccc(Cl)cc2)CC1", "note": "[1-(4-Chloro-benzenesulfonyl)-cyclopropanecarboxylic acid (5-tert-butyl-2-methyl-2H-pyrazol-3-yl)-amide]", "values": [{"measurement": "agonistic activity", "result": "agonistic activity"}]}
{"smiles": "CC(C)(C)c1cc(NC(=O)C2(S(=O)(=O)c3ccc(Cl)cc3)CC2)[nH]n1", "note": "[1-(4-Chloro-benzenesulfonyl)-cyclopropanecarboxylic acid (5-tert-butyl-2H-pyrazol-3-yl)-amide]", "values": [{"measurement": "agonistic activity", "result": "agonistic activity"}]}
{"smiles": "Cc1nc(NC(=O)C2(S(=O)(=O)c3ccc(Cl)cc3)CC2)sc1C(C)(C)C", "note": "[1-(4-Chloro-benzenesulfonyl)-cyclopropanecarboxylic acid (5-tert-butyl-4-methyl-thiazol-2-yl)-amide]", "values": [{"measurement": "agonistic activity", "result": "agonistic activity"}]}
{"smiles": "CC(C)(C)c1cc(NC(=O)C2(S(=O)(=O)c3ccc(Cl)cc3)CC2)no1", "note": "[1-(4-Chloro-benzenesulfonyl)-cyclopropanecarboxylic acid (5-tert-butyl-isoxazol-3-yl)-amide]", "values": [{"measurement": "agonistic activity", "result": "agonistic activity"}]}
{"smiles": "O=C(Nc1ccc(C(F)(F)F)cn1)C1(S(=O)(=O)c2ccc(Cl)cc2)CC1", "note": "[1-(4-Chloro-benzenesulfonyl)-cyclopropanecarboxylic acid (5-trifluoromethyl-pyridin-2-yl)-amide]", "values": [{"measurement": "agonistic activity", "result": "agonistic activity"}]}
{"smiles": "Cc1nc(NC(=O)C2(S(=O)(=O)c3ccc(C(F)(F)F)cc3)CCC2)sc1C(C)(C)C", "note": "[1-(4-Trifluoromethyl-benzenesulfonyl)-cyclobutanecarboxylic acid (5-tert-butyl-4-methyl-thiazol-2-yl)-amide]", "values": [{"measurement": "agonistic activity", "result": "agonistic activity"}]}
{"smiles": "CC(C)(C)c1cc(NC(=O)C2(S(=O)(=O)c3ccc(C(F)(F)F)cc3)CCC2)no1", "note": "[1-(4-Trifluoromethyl-benzenesulfonyl)-cyclobutanecarboxylic acid (5-tert-butyl-isoxazol-3-yl)-amide]", "values": [{"measurement": "agonistic activity", "result": "agonistic activity"}]}
{"smiles": "CC(C)(C)c1cnc(NC(=O)C2(S(=O)(=O)c3ccc(C(F)(F)F)cc3)CCC2)s1", "note": "[1-(4-Trifluoromethyl-benzenesulfonyl)-cyclobutanecarboxylic acid (5-tert-butyl-thiazol-2-yl)-amide]", "values": [{"measurement": "agonistic activity", "result": "agonistic activity"}]}
